Laboratory results from PMC12405480, “Endogenous ligands of bovine FFAR2/GPR43 display distinct pharmacological properties” (Frontiers in Cell and Developmental Biology, 2025).

Molecular target: T1, bFFAR2 (bovine FFAR2/GPR43) (Bos taurus, UniProt A0ACM8QIU6)
T1 construct: full-length synthetic cDNA, N-terminal FLAG tag; transiently expressed in HEK293A cells
T1 sequence (A0ACM8QIU6 1-329): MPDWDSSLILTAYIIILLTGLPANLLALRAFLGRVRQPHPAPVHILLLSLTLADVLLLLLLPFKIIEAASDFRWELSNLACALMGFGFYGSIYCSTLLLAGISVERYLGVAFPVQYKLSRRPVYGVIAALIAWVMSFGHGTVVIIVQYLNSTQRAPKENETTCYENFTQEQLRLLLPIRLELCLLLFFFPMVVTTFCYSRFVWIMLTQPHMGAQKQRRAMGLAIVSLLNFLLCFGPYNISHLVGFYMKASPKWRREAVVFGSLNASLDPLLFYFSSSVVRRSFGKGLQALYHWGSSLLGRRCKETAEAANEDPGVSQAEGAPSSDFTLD
Experiment: SRE luciferase reporter gene assay, HEK293A expressing bFFAR2
Format: cell-based
Conditions: not given
From the text: SRE luciferase reporter gene assay, HEK293A expressing bFFAR2 on bFFAR2 (bovine FFAR2/GPR43)

**Q.** CC(C)C(=O)O [2MP, 2-methyl-propanoic acid] was tested. Which EC50 did it give?
**A.** The EC50 was 234 µM.

Molecular target: T1, bFFAR2 (bovine FFAR2/GPR43)
Experiment: BRET, mini-Gαi recruitment to bFFAR2-Rluc8, HEK293A
Format: cell-based
Conditions: not given
From the text: BRET, mini-Gαi recruitment to bFFAR2-Rluc8, HEK293A on bFFAR2 (bovine FFAR2/GPR43)

**Q.** CC(C)CC(=O)O [3MB, 3-methyl-butanoic acid] was tested. Which EC50 did it give?
**A.** The EC50 was 75.9 µM.

**Q.** With CC(=O)O [C2:0] as the molecule, how does the EC50 read?
**A.** The EC50 was 9770 µM.

**Q.** CCC(=O)O [C3:0] was tested. Which EC50 did it give?
**A.** Its EC50 is 977 µM.

**Q.** For CCCC(=O)O [C4:0], which EC50 is on record?
**A.** The EC50 was 129 µM.

**Q.** For CCCCC(=O)O [C5:0], which EC50 is on record?
**A.** The EC50 was 61.7 µM.

**Q.** For CCCCCC(=O)O [C6:0], which EC50 is on record?
**A.** Its EC50 is 72.4 µM.

**Q.** How did the EC50 turn out when CCCCCCC(=O)O [C7:0] was run?
**A.** The EC50 was 126 µM.

Same assay, conditions: partial agonist; AUC over 10 min; -log10 of EC50; unreliable (EC50 above the 1 mM dose of Figure 1)

**Q.** How did the mGαi recruitment turn out when CCCCCCCC(=O)O [C8:0] was run?
**A.** Its mGαi recruitment is 2.57 ± 0.40.
